pKi: −log10 of the molar value.
Target: soluble human BACE-1 catalytic domain (Homo sapiens (Human), UniProt P56817)
Assay: BACE-1 Ki Assay (BACE-1 HTRF FRET Assay)
Assay type: biochemical
Conditions: Ki calculated from IC50 using the Cheng-Prusoff equation; QSY7-APPswe-Eu substrate, pH 5.0; read-out: BACE1 Ki
Source text: The following reagents were used in this assay. Na^+-Acetate pH 5.0; 1% Brij-35; Glycerol; Dimethyl Sulfoxide (DMSO); Recombinant human soluble BACE-1 catalytic domain (>95% pure); APP Swedish mutant peptide substrate (QSY7-APP^swe-Eu): QSY7-[…]-Europium-amide.
A homogeneous time-resolved FRET assay can be used to determine IC50 values for inhibitors of the soluble human BACE-1 catalytic domain. This assay monitors the increase of 620 nm fluorescence that resulted from BACE-1 cleavage of an APPswedish APP^swe mutant peptide FRET substrate (QSY7-[…]-Europium-amide). This substrate contains an N-terminal QSY7 moiety that serves as a quencher of the C-terminal Europium fluorophore (620 nm Em). In the absence of enzyme activity, 620 nm fluorescence is low in the assay and increased linearly over 3 hours in the presence of uninhibited BACE-1 enzyme. Inhibition of BACE-1 cleavage of the QSY7-APP^swe-Eu substrate by inhibitors is manifested as a suppression of 620 nm fluorescence.
Reactions are initiated by addition of 10 μl of 600 nM QSY7-APP^swe-Eu substrate (200 nM final) to give a final reaction volume of 30 μl in a 384 well Nunc HTRF plate. The reactions are incubated at 30° C. for 1.5 hours. […] Inhibitor IC50 values are derived from non-linear regression analysis of concentration response curves. Ki values are then calculated from IC50 values using the Cheng-Prusoff equation using a previously determined […] of 8 μM for the QSY7-APP^swe-Eu substrate at BACE-1. The example compounds of the invention were measured in this assay.

soluble human BACE-1 catalytic domain, sequence (P56817 75-416): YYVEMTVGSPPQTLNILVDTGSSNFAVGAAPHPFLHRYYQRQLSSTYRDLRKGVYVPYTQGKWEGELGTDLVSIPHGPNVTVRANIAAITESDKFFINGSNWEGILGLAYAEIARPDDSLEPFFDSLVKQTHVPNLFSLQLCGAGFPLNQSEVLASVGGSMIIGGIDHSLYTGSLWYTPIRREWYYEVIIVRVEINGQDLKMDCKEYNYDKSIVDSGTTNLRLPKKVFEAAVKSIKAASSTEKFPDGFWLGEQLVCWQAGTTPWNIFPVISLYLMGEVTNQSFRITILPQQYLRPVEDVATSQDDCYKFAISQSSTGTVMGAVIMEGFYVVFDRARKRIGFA

pKi | SMILES
5.60 | CN1C(=N)NC2(c3cc(NC(=O)c4ccc(Cl)cn4)ccc3F)CC2S1(=O)=O (stereo not shown) [Example 32, 5-chloro-N-(4-fluoro-3-(4-imino-3-methyl-2,2-dioxido-2-thia-3,5-diazabicyclo[4.1.0]heptan-6-yl)phenyl)picolinamide]
5.96 | CN1C(=N)NC2(c3cc(NC(=O)C(F)F)ccc3F)CCCC2S1(=O)=O (stereo not shown) [Example 36]
8.52 | C#CCOc1ccc(C(=O)Nc2ccc(F)c([C@]34CCC[C@H]3S(=O)(=O)N(C)C(=N)N4)c2)nc1 [Example 18, N-(4-fluoro-3-((4aR,7aR)-3-imino-2-methyl-1,1-dioxidohexahydrocyclopenta[e][1,2,4]thiadiazin-4a(2H)-yl)phenyl)-5-(prop-2-yn-1-yloxy)picolinamide]
7.60 | CN1C(=N)N[C@@]2(c3cc(NC(=O)c4cnc(C(F)(F)F)cn4)ccc3F)CCC[C@H]2S1(=O)=O [Example 14, N-(4-fluoro-3-((4aR,7aR)-3-imino-2-methyl-1,1-dioxidohexahydrocyclopenta[e][1,2,4]thiadiazin-4a(2H)-yl)phenyl)-5-(trifluoromethyl)pyrazine-2-carboxamide]
7.05 | CN1C(=N)N[C@@]2(c3cc(Oc4ncccc4F)ccc3F)CCC[C@H]2S1(=O)=O [Example 34, (4aR,7aR)-4a-(2-fluoro-5-((3-fluoropyridin-2-yl)oxy)phenyl)-3-imino-2-methyloctahydrocyclopenta[e][1,2,4]thiadiazine 1,1-dioxide]
7.51 | COc1cnc2c(Nc3ccc(F)c([C@]45CCC[C@H]4S(=O)(=O)N(C)C(=N)N5)c3)nccc2c1 [Example 19]
6.69 | COc1cnc2c(Nc3ccc(F)c([C@]45CCC[C@H]4S(=O)(=O)N(C)C(=N)N5)c3)ccnc2c1 [Example 21]
6.43 | COCC(=O)Nc1ccc(F)c(C23CCCC2S(=O)(=O)N(C)C(=N)N3)c1 (stereo not shown) [Example 35, N-(4-fluoro-3-(3-imino-2-methyl-1,1-dioxidohexahydrocyclopenta[e][1,2,4]thiadiazin-4a(2H)-yl)phenyl)-2-methoxy acetamide]
7.96 | COc1cnc(C(=O)Nc2ccc(F)c([C@]34CCC[C@H]3S(=O)(=O)N(C)C(=N)N4)c2)cn1 [Example 17, N-(4-fluoro-3-((4aR,7aR)-3-imino-2-methyl-1,1-dioxidohexahydrocyclopenta[e][1,2,4]thiadiazin-4a(2H)-yl)phenyl)-5-methoxypyrazine-2-carboxamide]
7.44 | COc1cnc2c(Nc3ccc(F)c([C@]45CCC[C@H]4S(=O)(=O)N(C)C(=N)N5)c3)nccc2n1 [Example 20, (4aR,7aR)-4a-(2-fluoro-5-(2-methoxypyrido[3,4-b]pyrazin-5-ylamino)phenyl)-3-imino-2-methyloctahydrocyclopenta[e][1,2,4]thiadiazine 1,1-dioxide]
8.15 | CN1C(=N)N[C@@]2(c3cc(NC(=O)c4cnc(OCC(F)(F)F)cn4)ccc3F)CCC[C@H]2S1(=O)=O [Example 16, N-(4-fluoro-3-((4aR,7aR)-3-imino-2-methyl-1,1-dioxidohexahydrocyclopenta[e][1,2,4]thiadiazin-4a(2H)-yl)phenyl)-5-(2,2,2-trifluoroethoxy)pyrazine-2-carboxamide]
7.80 | COc1ccc(C(=O)Nc2ccc(F)c([C@]34CCC[C@H]3S(=O)(=O)N(C)C(=N)N4)c2)nc1 [Example 15, N-(4-fluoro-3-((4aR,7aR)-3-imino-2-methyl-1,1-dioxidohexahydrocyclopenta[e][1,2,4]thiadiazin-4a(2H)-yl)phenyl)-5-methoxypicolinamide]
7.64 | COc1cnc(C(=O)Nc2ccc(F)c([C@]34CCC[C@H]3S(=O)(=O)N(C)C(=N)N4)c2)c(C)n1 [Example 12, N-(4-fluoro-3-((4aR,7aR)-3-imino-2-methyl-1,1-dioxidohexahydrocyclopenta[e][1,2,4]thiadiazin-4a(2H)-yl)phenyl)-5-methoxy-3-methylpyrazine-2-carboxamide]

Second part, the molecule before the results:

SMILES | pKi
Cc1ccc(C(=O)Nc2ccc(F)c([C@]34CCC[C@H]3S(=O)(=O)N(C)C(=N)N4)c2)nc1 [Example 7, N-(4-fluoro-3-((4aR,7aR)-3-imino-2-methyl-1,1-dioxidohexahydrocyclopenta[e][1,2,4]thiadiazin-4a(2H)-yl)phenyl)-5-methylpicolinamide] | 7.38
CN1C(=N)N[C@@]2(c3cc(NC(=O)c4ccc(C#N)cn4)ccc3F)CCC[C@H]2S1(=O)=O [Example 5, 5-cyano-N-(4-fluoro-3-((4aR,7aR)-3-imino-2-methyl-1,1-dioxidohexahydrocyclopenta[e][1,2,4]thiadiazin-4a(2H)-yl)phenyl)picolinamide] | 8.40
CN1C(=N)N[C@@]2(c3cc(NC(=O)c4ccc(OC(F)F)cn4)ccc3F)CCC[C@H]2S1(=O)=O [Example 3, 5-(difluoromethoxy)-N-(4-fluoro-3-((4aR,7aR)-3-imino-2-methyl-1,1-dioxidohexahydrocyclopenta[e][1,2,4]thiadiazin-4a(2H)-yl)phenyl)picolinamide] | 8.40
CN1C(=N)N[C@@]2(c3cc(NC(=O)c4ccc(F)cn4)ccc3F)CCC[C@H]2S1(=O)=O [Example 1] | 8.00
Cc1cc(F)cnc1C(=O)Nc1ccc(F)c([C@]23CCC[C@H]2S(=O)(=O)N(C)C(=N)N3)c1 [Example 10, 5-fluoro-N-(4-fluoro-3-((4aR,7aR)-3-imino-2-methyl-1,1-dioxidohexahydrocyclopenta[e][1,2,4]thiadiazin-4a(2H)-yl)phenyl)-3-methylpicolinamide] | 8.00
CN1C(=N)N[C@@]2(c3cc(NC(=O)c4cnc(OCCF)cn4)ccc3F)CCC[C@H]2S1(=O)=O [Example 2, N-(4-fluoro-3-((4aR,7aR)-3-imino-2-methyl-1,1-dioxidohexahydrocyclopenta[e][1,2,4]thiadiazin-4a(2H)-yl)phenyl)-5-(2-fluoroethoxy)pyrazine-2-carboxamide] | 7.74
CN1C(=N)N[C@@]2(c3cc(NC(=O)c4ccc(Cl)cn4)ccc3F)CCC[C@H]2S1(=O)=O [Example 4, 5-chloro-N-(4-fluoro-3-((4aR,7aR)-3-imino-2-methyl-1,1-dioxidohexahydrocyclopenta[e][1,2,4]thiadiazin-4a(2H)-yl)phenyl)picolinamide] | 8.52
COc1cnc(C(=O)Nc2ccc(F)c([C@]34CCC[C@H]3S(=O)(=O)N(C)C(=N)N4)c2)c(C)c1 [Example 11, N-(4-fluoro-3-((4aR,7aR)-3-imino-2-methyl-1,1-dioxidohexahydrocyclopenta[e][1,2,4]thiadiazin-4a(2H)-yl)phenyl)-5-methoxy-3-methylpicolinamide] | 7.80
Cc1cnc(C(=O)Nc2ccc(F)c([C@]34CCC[C@H]3S(=O)(=O)N(C)C(=N)N4)c2)cn1 [Example 6, N-(4-fluoro-3-((4aR,7aR)-3-imino-2-methyl-1,1-dioxidohexahydrocyclopenta[e][1,2,4]thiadiazin-4a(2H)-yl)phenyl)-5-methylpyrazine-2-carboxamide] | 6.90
CN1C(=N)N[C@@]2(c3cc(NC(=O)c4ncc(Cl)cc4F)ccc3F)CCC[C@H]2S1(=O)=O [Example 8, 5-chloro-3-fluoro-N-(4-fluoro-3-((4aR,7aR)-3-imino-2-methyl-1,1-dioxidohexahydrocyclopenta[e][1,2,4]thiadiazin-4a(2H)-yl)phenyl)picolinamide] | 8.40
CN1C(=N)N[C@@]2(c3cc(NC(=O)c4ncc(F)cc4F)ccc3F)CCC[C@H]2S1(=O)=O [Example 9, 3,5-difluoro-N-(4-fluoro-3-((4aR,7aR)-3-imino-2-methyl-1,1-dioxidohexahydrocyclopenta[e][1,2,4]thiadiazin-4a(2H)-yl)phenyl)picolinamide] | 7.66

Same assay, conditions: read-out: BACE-1 Inh. @ 10 μM

SMILES | inhibition at 10 µM [%]
CN1C(=N)NC2(c3ccccc3F)CCCC2S1(=O)=O (stereo not shown) [Example 37, 4a-(2-fluorophenyl)-3-imino-2-methyloctahydrocyclopenta[e][1,2,4]thiadiazine 1,1-dioxide] | 43
CN1C(=N)N[C@@]2(c3cc(Br)ccc3F)CCC[C@H]2S1(=O)=O [Example 33, (4aR,7aR)-4a-(5-bromo-2-fluorophenyl)-3-imino-2-methyloctahydrocyclopenta[e][1,2,4]thiadiazine 1,1-dioxide] | 18

Target: purified human autoBACE-2 (Homo sapiens (Human), UniProt Q9Y5Z0)
Sequence (Q9Y5Z0 63-473 limits assumed): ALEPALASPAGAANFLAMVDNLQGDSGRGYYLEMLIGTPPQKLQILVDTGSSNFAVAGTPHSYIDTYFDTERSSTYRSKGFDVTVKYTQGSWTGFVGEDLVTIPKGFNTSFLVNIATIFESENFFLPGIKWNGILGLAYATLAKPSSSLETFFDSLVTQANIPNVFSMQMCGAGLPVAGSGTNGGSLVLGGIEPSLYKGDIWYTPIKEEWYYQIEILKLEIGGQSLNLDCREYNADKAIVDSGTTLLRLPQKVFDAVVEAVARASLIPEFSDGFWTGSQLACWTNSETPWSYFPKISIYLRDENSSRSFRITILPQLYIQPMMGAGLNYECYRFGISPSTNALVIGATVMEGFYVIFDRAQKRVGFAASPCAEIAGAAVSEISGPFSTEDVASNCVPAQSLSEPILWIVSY
Assay: BACE-2 Assay (BACE-HTRF assay)
Conditions: not given

pKi | SMILES
7.12 | CN1C(=N)N[C@@]2(c3cc(Oc4ncccc4F)ccc3F)CCC[C@H]2S1(=O)=O [Example 34, (4aR,7aR)-4a-(2-fluoro-5-((3-fluoropyridin-2-yl)oxy)phenyl)-3-imino-2-methyloctahydrocyclopenta[e][1,2,4]thiadiazine 1,1-dioxide]

Same assay, conditions: read-out: BACE-2 Inh. @ 10 μM

inhibition at 10 µM [%] | SMILES
18 | CN1C(=N)N[C@@]2(c3cc(Br)ccc3F)CCC[C@H]2S1(=O)=O [Example 33, (4aR,7aR)-4a-(5-bromo-2-fluorophenyl)-3-imino-2-methyloctahydrocyclopenta[e][1,2,4]thiadiazine 1,1-dioxide]

Source: US10329291B2, “C5-C6-carbocyclic fused iminothiadiazine dioxides as BACE inhibitors, compositions, and their use” (Merck Sharp & Dohme Corp., priority 2015, dated 2019)
